Bridge positions count the residues as written; N and C are the ends. Peptide text beside a SMILES is read from it.
Assays:
TNFα trimer = conditions: TNFα 10 µM with excess peptide 100 µM, longer pre-incubation
L929 cells = conditions: at >100 µM compound
TNFα = TNFα (Homo sapiens, UniProt P01375); conditions: L929 assay; unable to fully rescue because of toxicity at higher concentrations
TNFα, sequence (P01375 77-233 limits assumed): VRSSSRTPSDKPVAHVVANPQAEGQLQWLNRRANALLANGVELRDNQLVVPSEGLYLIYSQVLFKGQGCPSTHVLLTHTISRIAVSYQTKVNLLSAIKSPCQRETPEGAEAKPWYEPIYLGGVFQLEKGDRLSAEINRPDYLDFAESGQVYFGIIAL

SMILES | effect on TNFα trimers (MS) (TNFα trimer) | cell death (L929 cells) [%] | maximal rescue of cell viability (TNFα) [%]
Cc1c2c(C)c3c(C)c1CSC[C@H](NC(=O)[C@@H]1CCCN1C(=O)[C@@H]1CCCN1C(=O)[C@@H](NC(=O)[C@H](C)N)CSC3)C(=O)N[C@@H](CC(C)C)C(=O)N[C@@H](Cc1c[nH]c3ccccc13)C(=O)N[C@@H](CCC(N)=O)C(=O)N[C@@H](C(C)C)C(=O)N[C@@H](CC(C)C)C(=O)N[C@H](C(=O)NCC(=O)NCC(=O)N[C@@H](CO)C(=O)NCC(=O)N[C@@H](CO)C(=O)NCC(=O)N[C@@H](CO)C(=O)NCC(N)=O)CSC2 [M21h] | converted quantitatively into dimers and monomers |  | 
CC(C)C[C@H](NC(=O)[C@@H]1CSSC[C@@H]2NC(=O)[C@H](CC(C)C)NC(=O)[C@H](CCC(=O)O)NC(=O)[C@@H](NC(=O)[C@H](CCC(=O)O)NC(=O)[C@H](CC(=O)O)NC(=O)[C@@H](N)CC(N)=O)CSSC[C@H](NC(=O)[C@H](C)NC(=O)[C@H](C(C)C)NC(=O)[C@H](CC(N)=O)NC(=O)[C@H](C(C)C)NC2=O)C(=O)N[C@@H]([C@@H](C)O)C(=O)NCC(=O)N1)C(=O)O [SPD304] (H-NDECELCVNVACTGCL-OH; disulfide 4-12, 7-15) |  | 100 | ≤ 73

Reference: article PMC4378371, “Subunit disassembly and inhibition of TNFα by a semi-synthetic bicyclic peptide” (Protein Engineering, Design and Selection, 2015)
